Paper PMC9468336, “The choanoflagellate pore-forming lectin SaroL-1 punches holes in cancer cells by targeting the tumor-related glycosphingolipid Gb3” (Communications Biology, 2022)

Experiments:
SaroL-1 [1] = molecular target: T1, SaroL-1 (Salpingoeca rosetta, UniProt F2UID9); test: Inhibition of SaroL-1 (217 nM) induced hemolysis of rabbit erythrocytes after 1 h pre-incubation of lectin with sugar at RT, then 1-2 h at 37 °C, absorbance of supernatant at 540 nm.; type: cell-based; settings: n = 2
T1 construct: gene PTSG_08235; monomeric in solution
Procedure: Hemolytic assay (HA) and inhibition of hemolytic activity (IHA)
Both HA and IHA assays were performed in U-shaped 96-well microtiter plates. In both cases, a control negative experiment was performed with Buffer A added to erythrocyte solution (2% final concentration), and the resulting value was subtracted from all data.
IHA was performed in U-shaped 96-well microtiter plates. […] 4% rabbit erythrocytes were added to the mixture in a 1:1 ratio and incubated for 1–2 h at 37 °C. The samples were centrifuged, 2600 × g for 15 min at RT, and the absorbance of the supernatant was measured at 540 nm by a Tecan reader.

SaroL-1 [2] = molecular target: T1, SaroL-1; test: Isothermal titration calorimetry (MicroCal iTC200) at 25 °C in 20 mM Tris/HCl pH 7.5, 100 mM NaCl, ligand titrated into SaroL-1, one-site model with stoichiometry N fixed to 3.; type: binding
Procedure: Isothermal Titration Calorimetry (ITC)
ITC experiments were performed with MicroCaliTC200 (Malvern Panalytical). Experiments were carried out at 25 °C ± 0.1 °C. SaroL-1 and ligands samples were prepared in Buffer A. The ITC cell contained SaroL-1 in a concentration range from 0.05 mM to 0.16 mM. The syringe contained the ligand solutions in a concentration from 10 to 50 mM. 2 μL of ligands solutions were injected into the sample cell at intervals of 120 s while stirring at 750 rpm. Integrated heat effects were analysed by nonlinear regression using one site binding model (MicroCal PEAQ-ITC Analysis software). The experimental data were fitted to a theoretical curve, which gave the dissociation constant (Kd) and the enthalpy of binding (∆H).

[3] = Confocal imaging of SaroL-1 binding to Gb3 wt GUVs; design: species or system porcine; settings: 200 nM fluorescent SaroL-1, Gb3 wt GUVs, compared with FSL-Gb3 GUVs
Description: (§1) GUVs were composed of 1,2-dioleoyl-sn-glycero-3-phosphocholine (DOPC), cholesterol (both AvantiPolar Lipids, United States), Atto 647 N 1,2-dioleoyl-sn-glycero-3-phosphoethanolamine (DOPE; Sigma-Aldrich), and one of the following glycolipids at a molar ratio of 64.7:30:0.3:5. The glycolipids are globotriaosylceramide (Gb3, Matreya), FSL-Gb3 (Function-Spacer-Lipid with globotriaosyl saccharide), and corresponding FSL-isoGb3 (Function-Spacer-Lipid with iso-globotriaosyl saccharide) synthetized as previously described[84],[85], FSL-A(tri) (Function-Spacer-Lipid with blood group A trisaccharide; Sigma-Aldrich), FSL-B(tri) (Function-Spacer-Lipid with blood group B trisaccharide; Sigma-Aldrich) or lactosylceramide (LC, Sigma-Aldrich).
(§2) GUVs were prepared by the electroformation method as earlier described. Briefly, lipids dissolved in chloroform of a total concentration of 0.5 mg/mL were spread on indium tin oxid-covered (ITO) glass slides and dried in a vacuum for at least 1 h or overnight. […]
(§3) Samples of GUVs and SaroL-1 were imaged using a confocal fluorescence microscope (Nikon Eclipse Ti-E inverted microscope equipped with Nikon A1R confocal laser scanning system, 60x oil immersion objective, NA = 1.49 and four laser lines: 405 nm, 488 nm, 561 nm, and 640 nm). […]

[4] = Confocal imaging of SaroL-1 binding to lactosylceramide GUVs; settings: 200 nM labelled SaroL-1, Lac-cer GUVs
Description: as §1, §2, §3

Molecule	IC50 (SaroL-1 [1])	Kd (SaroL-1 [2])	binding to GUVs [3]	binding to GUVs [4]
O=[N+]([O-])c1ccc(O[C@H]2O[C@H](CO)[C@H](O)[C@H](O)[C@H]2O)cc1 [PNPG, p-nitrophenyl-α-D-galactopyranoside]	2900 µM	1010 µM		
SaroL-1: Recombinant pore-forming lectin of Salpingoeca rosetta (UniProt F2UID9, 329 amino acids) with β-trefoil and aerolysin-like domains (protein, left off: His6, N-terminal, state not stated, Recombinant pore-forming lectin of Salpingoeca rosetta (UniProt F2UID9, 329 amino acids) with β-trefoil and aerolysin-like domains) MSSTFEPATDSPLPVPGVQYFLQHVQSGKYVHPHGGSDMPGNDTALVLHHGFDEKRDALRWVFVNDAENKHQLKHYSSGKFVHPKGGKVGKEATLVVHSSPGRPETMIEMVQEDGRTYLRHTDSDYYVHPHGGSPNPGDNTRLVYYSGYRPSLAFLAIPAETLFVDRIEIHQAQALESINTITSLSDEHRNDTDQPVQTSISVALEESLQDSAQLSFERCFGLKVGSEFEVGLPLVGKTKVSVQFSGSWKSSTIKGEVRTSAVKVQINEHVTIPPGKCVQIRIDTRRCTKTAPATMYLRTASGIEVQRETTVTSTYHYDQEVHVVPVTN			of the same order	very weak binding
